Measured values: patent publication US20230278997A1, “BICYCLO[1.1.1]PENTANE COMPOUNDS FOR THE TREATMENT AND PROPHYLAXIS OF HEPATITIS B VIRUS INFECTION” (Hoffmann-La Roche Inc., priority 2020, published 2023)
Read-outs that look alike come from different tables or passages of the source.

Tests used:
[1] = test system: HBsAg; test: microbe, parasite or virus in culture; assay type: cell-based, HBV; conditions: Hepatitis B virus, read-out: HBsAg IC50
[2] = test system: HBeAg; test: microbe, parasite or virus in culture; assay type: cell-based, HBV; conditions: Hepatitis B virus, read-out: HBeAg IC50
[3] = test system: primary human hepatocyte (PHH); test: Cytotoxicity in PHH natural infection assay (Cell Counting Kit-8); assay type: cell-based; conditions: therapeutic index; CC50 by CCK8 in PHH over HBsAg IC50
Method: Detailed procedures regarding primary human hepatocyte (PHH) HBV natural infection assay are described as below. One tube of frozen PHH (10 million cells) was thawed in 37° C. water bath and then transferred to 20 mL of PHH thawing medium (Sigma, InVitroGRO HT Medium, Cat. 503319) with gently mixing. The cells were then centrifuged at […] for 5 min, the supernatant was discarded and the tube was refilled with 25 mL of PHH plating medium (Sigma, InVitroGRO CP Medium, Cat. 503317). The tube was shaken very gently to re-suspend all cells, and then 50 μl of cells were transferred to each well of a 384-well collagen I coated plate with appropriate liquid handling equipment, e.g. Integra VIAFLO384 or Agilent Bravo. The cells were then cultured for 24 hours in a cell incubator. For HBV infection, after PHH attachment on the culture plate, the plating medium was removed and replenished with PHH culture medium containing HBV virus. The PHH culture medium was prepared with Dulbecco's Modified Eagle Medium (DMEM)/F12 (1:1 in volume ratio) containing 10% fetal bovine serum (Gibco, Cat.10099141), 5 ng/mL human epidermal growth factor (Gibco, Cat.PHG031 IL), 20 ng/mL dexamethasone (Sigma, Cat.D4902-100 mg), 250 ng/mL human recombinant insulin (Gibco, Cat.41400045) and 100 U/mL penicillin. HBV virus at 200 genome equivalent (GE) per cell with 4% PEG8000 (Sigma, Cat.P1458) containing culture medium were added to the PHH culture medium for infection. The cells were then cultured for 24 hours in cell incubator. Then the cell culture supernatant was removed. The HBV-infected PHH were cultured with sandwich culture method with PHH culture medium containing 1% DMSO and 0.25 mg/mL matrix gel for 72 hours. The supernatant was then refreshed with PHH culture medium containing different concentrations of testing compounds for two times with 72-hour interval. At the end of treatment, the supernatant was collected for viral markers measurements, including HBsAg, HBeAg, HBV DNA and cytotoxicity. HBsAg and HBeAg were detected using alphalisa method using their specific antibodies. For HBV DNA detection, HBV DNA Quantitative Fluorescence Diagnostic Kit (Sansure Biotech Inc.) was used following the manufacture's protocol. Cytotoxicity was determined using Cell Counting Kit-8 (CCK8, Dojindo Molecular Technologies, Inc.).

[4] = Human microsome stability assay; assay type: in vitro ADME; conditions: 1 μM compound, 0.5 mg/mL microsomal protein, 37° C.; detection limit 6.15 mL/min/kg
[5] = Single dose pharmacokinetics (PK) study in male C57BL/6 mouse; assay type: in vivo; conditions: for clearance / half-life / Vd / AUC(0-t): male; for clearance / half-life / Vd: C57BL/6, plasma; for clearance / half-life / Vd / F: mouse; for Vd: read-out: VSS; for AUC(0-t): C57BL/6, mouse plasma; for F: dose normalized AUC0-last
Method: Single Dose Pharmacokinetics (PK) Study in Male C57BL/6 Mouse Pharmacokinetic properties of selected compounds were assessed by single dose PK studies in Male C57BL/6 mouse (vendor: Beijing Vital River Laboratory Animal Technology Co., Ltd). Briefly, two groups of animals were administered a single dose of respective compound intravenously (IV, bolus) at 1 mg/kg or orally (PO, by gavage) at 10 mg/kg or 30 mg/kg. […] After centrifugation, the resulting plasma was transferred to clean tubes for bioanalysis with LC/MS/MS. The pharmacokinetic parameters were calculated using non-compartmental analysis. The volume of distribution (Vss), half-life (T1/2) and clearance (CL) were obtained based on the plasma concentration-time curve after IV dose. The peak concentration (Cmax) was recorded directly from experimental observations after PO dose. The area under the plasma concentration-time curve (AUC0-last and AUC0-24 h) was calculated using the linear trapezoidal rule up to the last detectable concentration. The bioavailability (F) was calculated based on the dose normalized AUC0-last after IV and PO dose. The Vss of a drug represents the degree to which a drug is distributed in body tissue rather than the plasma. Vss is directly proportional with the amount of drug distributed into tissue. A higher Vss indicates a greater amount of tissue distribution.

[6] = as above; assay type: in vivo; conditions: IV dose 0.4 mg/kg
[7] = IV bolus 1 mg/kg, read-out: IV AUC0-24h
[8] = PO 30 mg/kg single dose, read-out: PO AUC0-24h

SMILES	IC50 [1] [nM]	IC50 [2] [nM]	TI (CC50/IC50 HBsAg) [3]	Clearance of human microsome [4] [mL/min/kg]	clearance ([5]; IV bolus 1 mg/kg) [mL/min/kg]	half-life ([5]; IV bolus 1 mg/kg) [h]	Vd ([5]; IV bolus 1 mg/kg) [L/kg]	AUC(0-t) [5, 7] [µg·h/mL]	AUC(0-t) [5, 8] [µg·h/mL]	F ([5]; PO 30 mg/kg vs IV) [%]	AUC(0-t) ([6]; C57BL/6, mouse plasma, AUC value is dose-normalized, read-out: IV AUC0-24h) [µg·h/mL]	clearance ([6]; C57BL/6, plasma, mouse) [mL/min/kg]	half-life ([6]; C57BL/6, plasma, mouse) [h]	Vd ([6]; C57BL/6, plasma, mouse, read-out: VSS) [L/kg]	AUC(0-t) ([5]; PO 10 mg/kg single dose, read-out: PO AUC0-24h) [µg·h/mL]	F ([5]; PO 10 mg/kg vs IV 1 mg/kg) [%]
CS(=O)(=O)C1(c2ccc(C(=O)NC34CC(c5cnn(-c6ccc(Cl)cc6)n5)(C3)C4)o2)CC1 [Example 30, N-[3-[2-(4-chlorophenyl)triazol-4-yl]-1-bicyclo[1.1.1]pentanyl]-5-(1-methylsulfonylcyclopropyl)furan-2-carboxamide]	60	40	148.67	≤6.15	0.19	48.4	0.74	27	370	46						
CS(=O)(=O)C1(c2nsc(C(=O)NC34CC(c5cnn(-c6ccc(Cl)cc6)n5)(C3)C4)n2)CC1 [Example 60, N-[3-[2-(4-chlorophenyl)triazol-4-yl]-1-bicyclo[1.1.1]pentanyl]-3-(1-methylsulfonylcyclopropyl)-1,2,4-thiadiazole-5-carboxamide]	17	17	261.76	≤6.15	0.1	62.4	0.55	38.1	154	14						
CS(=O)(=O)C1(c2nsc(C(=O)NC34CC(c5nc(-c6ccc(Cl)cc6)no5)(C3)C4)n2)CC1 [Example 34, N-[3-[3-(4-chlorophenyl)-1,2,4-oxadiazol-5-yl]-1-bicyclo[1.1.1]pentanyl]-3-(1-methylsulfonylcyclopropyl)-1,2,4-thiadiazole-5-carboxamide]	20	20	181.50	≤6.15					270	39	24.2	0.03	> 40	0.93		
CS(=O)(=O)C1(c2ccc(C(=O)NC34CC(c5nc(-c6ccc(Cl)cc6)no5)(C3)C4)o2)CC1 [Example 32, N-[3-[3-(4-chlorophenyl)-1,2,4-oxadiazol-5-yl]-1-bicyclo[1.1.1]pentanyl]-5-(1-methylsulfonylcyclopropyl)furan-2-carboxamide]	40	40	112.00	≤6.15	0.43	17.8	0.64	24.1	249	35						
CS(=O)(=O)C1(c2ccc(C(=O)NC34CC(c5nc(-c6ccc(Cl)cc6)cs5)(C3)C4)o2)CC1 [Example 1, N-[3-[4-(4-chlorophenyl)thiazol-2-yl]-1-bicyclo[1.1.1]pentanyl]-5-(1-methylsulfonylcyclopropyl)furan-2-carboxamide]	160	120	27.88	≤6.15	0.2	23.6	0.4	42.7	1310	102						
CS(=O)(=O)C1(c2nsc(C(=O)NC34CC(c5ccnc(-c6ccc(Cl)cc6)n5)(C3)C4)n2)CC1 [Example 48, N-[3-[2-(4-chlorophenyl)pyrimidin-4-yl]-1-bicyclo[1.1.1]pentanyl]-3-(1-methylsulfonylcyclopropyl)-1,2,4-thiadiazole-5-carboxamide]	70	70	127.43	10.71	0.07	53.7	0.29	70.2							629	92
